Experimental data taken from patent US20260216057A1, “PHARMACEUTICAL COMPOSITIONS FOR HERPES VIRUS” (priority 2022, published 2026).

How the values were obtained:
[1] = Example 15: Compound 1 solution SC PK study in rat; assay type: in vivo, male Sprague Dawley rats
Protocol: The LC-MS methodology and conditions used to analyse the helicase-primase inhibitor Compound 1 in rat plasma samples from the sub-cutaneous injection PK study described in Example 15 are provided in Table 8.
A solution of Compound 1 in 90% NMP and 10% Solutol HS15 at a concentration of 50 mg/mL was prepared as follows: • 1) An appropriate amount of crystalline Compound 1 (Form C) was weighed and added to NMP. • 2) After Compound 1 had dissolved, Solutol HS15 was added to the solution and mixed […]. • 3) The final dosing formulation was a clear solution.
Male Sprague Dawley (SD) rats with ~230-250 g body weight (aged 6-8 weeks) were used for the pharmacokinetic study. The animals had free access to food and water. […]
At each time point, approximately 150 μL whole blood was collected in a K2EDTA tube via the jugular vein. Blood samples were put on ice and centrifuged at 2000 g for 5 min to obtain a plasma sample within 15 minutes. Plasma samples were stored at approximately −70° C. until analyzed by LC-MS.

[2] = Example 13: Compound 1 IV PK study in rat; assay type: in vivo, male Sprague Dawley rats; conditions: male, Sprague Dawley, plasma, 1 mg/kg, read-out: Rat t1/2 (converted)
Protocol: The LC-MS methodology and conditions used to analyse Compound 1 in plasma samples from the intra-venous injection PK studies (Example 13) are described in Tables 5 to 7. A 0.2 mg/mL solution of Compound 1 in 10% NMP, 10% Solutol HS15 and 80% Saline was prepared as follows: • 1) A stock solution of Compound 1 in NMP was prepared. • 2) An equal volume of the Compound 1 stock solution and Solutol HS15 were combined and mixed. • 3) The above solution was diluted with normal saline to reach the target concentration. The final formulation was a clear solution. Male Sprague Dawley (SD) rats with 230-250 g body weight, ages 6-8 weeks, were used for the rat pharmacokinetic study. The animals had free access to food and water. The Compound 1 solution described above was administered via intravenous injection to animals (n=3) to achieve a 1.0 mg/kg dose. At each time point, approximately 200 μL whole blood was collected in a K2EDTA tubes. Blood samples were put on ice and centrifuged at 2000 g for 5 min to obtain a plasma sample within 15 minutes. Plasma samples were stored at approximately −70° C. until analyzed by LC-MS according to the method described above.

[3] = Example 4: pritelivir aqueous suspension SC PK study in dog; assay type: in vivo, male non-naïve Beagle dogs; conditions: aqueous suspension (dihydrate), 10 mg/kg, following an initial drug burst
Protocol: The LC-MS methodology and conditions used to analyse pritelivir in plasma samples from the PK studies described in Examples 1 to 5 are provided in Table 1.
An aqueous suspension of crystalline pritelivir free base (dihydrate) in a 0.9% NaCl+0.5% poloxamer 188 vehicle at a concentration of 5.0 mg/mL was prepared as follows: • 1) Vehicle (0.9% w/w NaCl and 0.5% w/w poloxamer 188) was prepared by dissolving NaCl and poloxamer 188 in water. • 2) Appropriate amount of crystalline pritelivir free base (dihydrate) was weighed and added to the vehicle. • 3) Mixture was stirred for 15 minutes, then vortexed for 1 minute and then sonicated for 10 minutes. • 4) The final dosing formulation was a homogenous white cloudy suspension.
Male non-naïve beagles were used for the dog PK study. The animals had free access to food and water. The prepared suspension was administered via subcutaneous injection to each animal group (n=3) with a dosing volume of 2 mL/kg to achieve a 10 mg/kg dose.
At each time point, approximately 0.5 mL of whole blood was collected into K2EDTA tubes. Blood samples were put on ice and centrifuged at 2000 g for 5 min to obtain plasma samples within 15 minutes. Plasma samples were stored at approximately −70° C. until analyzed by LC-MS.

[4] = Example 14: pritelivir SC PK study in dog (solution, micro-suspension, nano-suspension); assay type: in vivo, male non-naïve Beagle dogs; conditions: 10 mg/kg
Protocol: The LC-MS methodology and conditions used to analyse pritelivir in dog plasma samples from the PK study described in Example 14 are provided in Table 2.
A solution of pritelivir in 90% NMP (Sigma) and 10% Solutol HS15 (BASF) at a concentration of 100 mg/mL was prepared as follows: • 1) Around 460 mg of crystalline pritelivir free base sesquihydrate (based on assay) was weighed and added to ~3.9 mL of NMP. The mixture was stirred for 10 mins. • 2) After the pritelivir had dissolved, Solutol HS15 (−0.4 mL) was added to the solution and mixed for another 2 mins. • 3) The final dosing formulation was a clear solution.
An aqueous micro-suspension of crystalline pritelivir free base (sesquihydrate) in a 2 mg/mL polysorbate 80 (Tween 80) and 5 mg/mL Methocel A4M vehicle at a concentration of 100 mg/mL was prepared as follows: • 1) Crystalline pritelivir free base (sesquihydrate) was jet milled [grinding pressure […]] to obtain microparticles (Dv90<10 um). • 2) Around 460 mg of jet milled material (based on assay) were then dispersed in a 2 mg/mL polysorbate 80 (Tween 80) and 5 mg/ml Methocel A4M solution (−4.4 mL) to obtain a 100 mg/ml suspension. • 3) The mixture was stirred for 10 minutes. • 4) The final dosing formulation was a homogenous white cloudy suspension.
An aqueous nano-suspension of crystalline pritelivir free base (sesquihydrate) in a 10 mg/mL NaCMC, 2 mg/mL polysorbate 80 (Tween 80) and 50 mg/mL mannitol vehicle at a concentration of 100 mg/mL was prepared as follows: • 1) 10 mg/mL crystalline pritelivir free base (sesquihydrate) was dispersed into a solution of 1 mg/mL NaCMC+0.2 mg/mL polysorbate 80 (Tween 80) and 5 mg/mL mannitol. • 2) The suspension was subjected to high pressure homogenizer (around 20 cycles at 600 bar followed with 130 cycles at 900 bar) until particle size was around 1 μm. • 3) After particle size reduction, the suspension was subjected to freeze drying to obtain a freeze-dried powder. • 4) The freeze-dried powder was reconstituted with water to obtain a 100 mg/ml suspension. • 5) The suspension was wet milled (10:1 0.1 mm zirconium oxide milling beads: pritelivir) at 700 rpm for 500 minutes to reduce particle size to nanosized particles (Dv90<500 nm). • 6) This nanosuspension was subjected to freeze drying to obtain a freeze-dried powder. • 7) Appropriate amounts of freeze-dried powder (based on assay) were weighed and added to water to obtain a 100 mg/ml suspension. • 8) The mixture was stirred for 10 minutes. • 9) The final dosing formulation was a homogenous white cloudy suspension.
Male non-naïve beagles were used for the dog PK study. […]
At each time point, approximately 0.5 mL of whole blood was collected into K2EDTA tubes. […] Plasma samples were stored at approximately −70° C. until analyzed by LC-MS.

[5] = solution in 90% NMP/10% Solutol HS15

| variability in plasma concentrations [1, 5] | prolonged exposure for (length of the study) ([1]; solution in 90% NMP/10% Solutol HS15 (50 mg/mL), dose of 50 mg/kg as printed, following an initial drug burst) [h] | half-life [2] [h] | plasma exposure after SC administration [3] | plasma exposure after SC administration ([4]; 0.1 mL/kg, all three formulations (solution, microsuspension, nanosuspension; 100 mg/mL)) | SMILES | adverse reactions at the injection sites [1, 5] | plasma concentrations, microsuspension compared with nanosuspension ([4]; early time points (up to 234 hr)) | plasma concentration levels of the solution formulation compared with the suspensions ([4]; solution in 90% NMP/10% Solutol HS15, early time points) | adverse reactions at the injection sites ([4]; three formulations) |
| --- | --- | --- | --- | --- | --- | --- | --- | --- | --- |
| low | 960 | 22 | – | – | Cc1nc(N2CCCN(c3ccc(-c4cc(F)ccc4F)cc3)C2=O)sc1S(N)(=O)=O [Compound 1, 2-(3-(2′,5′-difluoro-[1,1′-biphenyl]-4-yl)-2-oxotetrahydropyrimidin-1(2H)-yl)-4-methylthiazole-5-sulfonamide] | no adverse reactions were observed | – | – | – |
| – | – | – | prolonged exposure was achieved | Prolonged exposure was achieved | Cc1nc(N(C)C(=O)Cc2ccc(-c3ccccn3)cc2)sc1S(N)(=O)=O [pritelivir, N-methyl-N-(4-methyl-5-sulfamoyl-1,3-thiazol-2-yl)-2-[4-(pyridin-2-yl)phenyl]acetamide] | – | higher plasma concentrations of pritelivir were obtained from the microsuspension | highest plasma concentration levels at the early time points | no adverse reactions were observed |
